# Assay results taken from ChEMBL document CHEMBL1132802, “Synthesis, chiral chromatographic separation, and biological activities of the enantiomers of 10,10-dimethylhuperzine A” (Bioorg Med Chem Lett, 2000).
# Assays:
# Acetylcholinesterase = biological target: T1, Acetylcholinesterase (Bos taurus, UniProt P23795); assay: Binding affinity towards Acetylcholinesterase from fetal bovine serum
# T1 sequence (P23795 whole entry): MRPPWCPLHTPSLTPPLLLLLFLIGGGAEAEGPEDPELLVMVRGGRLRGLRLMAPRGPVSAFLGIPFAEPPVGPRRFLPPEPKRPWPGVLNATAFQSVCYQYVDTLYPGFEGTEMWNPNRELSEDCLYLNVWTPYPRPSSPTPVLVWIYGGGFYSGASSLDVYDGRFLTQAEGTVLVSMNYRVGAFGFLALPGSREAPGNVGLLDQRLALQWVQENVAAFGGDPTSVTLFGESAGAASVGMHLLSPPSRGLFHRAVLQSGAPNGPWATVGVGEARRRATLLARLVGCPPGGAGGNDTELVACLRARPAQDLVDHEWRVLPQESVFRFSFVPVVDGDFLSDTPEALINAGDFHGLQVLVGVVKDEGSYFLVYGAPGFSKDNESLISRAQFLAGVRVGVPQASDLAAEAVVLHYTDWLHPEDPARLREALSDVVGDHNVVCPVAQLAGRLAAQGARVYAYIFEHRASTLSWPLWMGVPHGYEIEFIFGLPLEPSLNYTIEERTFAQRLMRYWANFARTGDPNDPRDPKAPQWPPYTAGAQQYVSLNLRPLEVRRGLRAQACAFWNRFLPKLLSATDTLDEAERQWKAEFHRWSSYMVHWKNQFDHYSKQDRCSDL
# Rattus norvegicus = organism: Rattus norvegicus; assay: Effect of pretreatment on the survival of the rat embryonic forebrain neurons when exposed to glutamate; assay type: functional
# [1] = Half life period was determined; assay type: ADME; settings: rat
SMILES,Ki (Acetylcholinesterase) [nM],Control (Rattus norvegicus) [%],further results
C/C=C1\C2C=C(C)C[C@]1(N)c1ccc(O)nc1C2(C)C (stereo in doubt; form 1),30.9,,
N[C@@H](CCC(=O)O)C(=O)O [GLUTAMIC ACID],,43.7,
C/C=C1\[C@H]2C=C(C)C[C@]1(N)c1ccc(=O)[nH]c1C2 [HUPERZINE A],,,half-life [1]: 35 min
C/C=C1\C2C=C(C)C[C@]1(N)c1ccc(O)nc1C2(C)C (stereo in doubt; form 4),7.7,,
C/C=C1\C2C=C(C)C[C@]1(N)c1ccc(O)nc1C2(C)C.NC(CCC(=O)O)C(=O)O (stereo in doubt; form 3),,71.3,
C/C=C1\C2C=C(C)C[C@]1(N)c1ccc(O)nc1C2(C)C.NC(CCC(=O)O)C(=O)O (stereo in doubt; form 2),,71.7,
